Measured values published in patent publication US20230148299A1, “FEM1B PROTEIN BINDING AGENTS AND USES THEREOF” (The Regents Of The University Of California, priority 2020, published 2023).

Experiments:
FEM1B-FNIP1 = FEM1B-FNIP1 (Homo sapiens, UniProt Q9UK73); assay: Fluorescence polarization between FEM1B and FNIP1 (covalent ligand screen); type: binding; conditions: DMSO = 100, FP between FEM1B and FNIP1; for remaining activity at 5 µM: compound at 5 μM, read-out: Normalized FP 5 μM; for activity at 50 µM: compound at 50 μM, read-out: Normalized FP 50 μM
Chain of FEM1B-FNIP1 (Q9UK73 whole entry): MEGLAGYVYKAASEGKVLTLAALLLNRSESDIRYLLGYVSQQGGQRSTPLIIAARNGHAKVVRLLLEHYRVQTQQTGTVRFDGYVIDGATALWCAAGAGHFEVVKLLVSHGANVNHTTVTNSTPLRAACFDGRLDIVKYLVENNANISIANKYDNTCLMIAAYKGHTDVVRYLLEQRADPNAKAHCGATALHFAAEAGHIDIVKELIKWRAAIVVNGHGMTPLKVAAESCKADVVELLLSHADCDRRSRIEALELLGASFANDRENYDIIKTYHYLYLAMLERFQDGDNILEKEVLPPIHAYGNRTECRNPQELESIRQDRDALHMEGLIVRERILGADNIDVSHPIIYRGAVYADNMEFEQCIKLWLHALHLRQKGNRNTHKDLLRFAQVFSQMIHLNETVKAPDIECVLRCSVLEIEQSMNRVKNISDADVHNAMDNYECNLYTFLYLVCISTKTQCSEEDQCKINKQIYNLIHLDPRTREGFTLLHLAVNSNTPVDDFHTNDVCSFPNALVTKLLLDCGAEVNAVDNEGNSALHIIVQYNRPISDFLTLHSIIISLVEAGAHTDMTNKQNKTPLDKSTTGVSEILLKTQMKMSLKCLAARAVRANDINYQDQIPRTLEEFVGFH
Description: FIG. 11. Fluorescence polarization screen to identify functional FEM1B-FNIP1-targeting covalent ligands.
(§1) FEM1B binds a conserved central degron in FNIP1. Deletion analysis of FNIP1 identifies a stretch of 20 amino acids that is required for its binding to FEM1B and its proteasomal degradation. FNIP1 variants were expressed in cells and tested for interaction with ^FLAGFEM1B by co-immunoprecipitation, and for degradation by measuring their abundance in the presence or absence of FEM1B. The FNIP1 degron is required for FEM1B binding and proteasomal degradation. […] FEM1B variants were immunoprecipitated and bound FNIP1 and FLCN were detected by Western blotting. The FNIP1 degron is sufficient to mediate FEM1B-dependent degradation. The FNIP1 degron was fused to GFP (GFP^degron) and expressed from the same plasmid as an IRES controlled mCherry. mCherry provides normalization for GFP fluorescence in each cell. […] Levels of GFP^degron and mCherry were determined by FACS, and their ratio is depicted for presence or absence of FEM1B variants. Deletion of FEM1B prevents FNIP1-degron dependent degradation. The FEM1B locus was deleted in 293T cells using CRISPR/Cas9. Cells were transfected with the GFP^degron/mCherry reporter, and analyzed for GFP and mCherry fluorescence by FACS. FEM1B directly binds the FNIP1 degron in vitro. A TAMRA-labeled FNIP1 degron peptide was incubated with purified FEMIB or the control CRL1 adaptor FBXL17, and binding was measured by fluorescence polarization of the peptide. The FNIP1 degron is sufficient to mediate CUL2^FEM1B-dependent ubiquitylation. The TAMRA-labeled FNIP1 degron was incubated with recombinant CUL2^FEM1B (unmodified or NEDD8-modified), E1, ubiquitin, ATP and the E2 enzymes UBE2D3 and/or UBE2R1. Ubiquitylation was monitored by gel electrophoresis and fluorescence detection.

BRD4 = biological target: T1, BRD4 (Homo sapiens, UniProt O60885); assay: BRD4 degradation by Western blot in 231MFP breast cancer cells; type: cell-based; conditions: 231MFP cells, NJH-01-106 12 hours, MZ1 4 hours
T1 construct: endogenous in cells; host or cells: 231MFP breast cancer cells
Description: 231MFP breast cancer cells were treated for 12 hours with NJH-01-106, and 4 hours with known BRD4 PROTAC MZ1. BRD4 and loading control GAPDH levels were assessed by Western blotting following treatment with NJH-01-106 or MZ1, as described above, and are shown in FIG. 4.
Western Blot Protocol. Proteins were resolved by SDS-PAGE (4-20% TGX gels, Bio-Rad Laboratories, Inc.) and transferred to nitrocellulose membranes using the Trans-Blot Turbo transfer system (Bio-Rad). Membranes were blocked with 5% BSA in Tris-buffered saline containing Tween 20 (TBST) solution for 1 h at room temperature, washed in TBST and probed with primary antibody diluted in diluent, as recommended by the various manufacturers, overnight at 4° C. Primary antibodies used were: BRD4 (Cell Signaling Technologies #13440), GAPDH (ProteinTech 60004-1-Ig), FEM1B (ProteinTech 19544-1-AP). Following washes with TBST, the blots were incubated in the dark with secondary antibodies purchased from Li-Cor Biosciences and used at 1:10,000 dilution in 5% BSA in TBST at room temperature for 1 h. Blots were visualized using an Odyssey Li-Cor scanner after additional washes. Protein intensity was quantified using ImageJ software.

[1] = tested on: GFP-Fnip1 degron reporter; assay: GFP-Fnip1 degron reporter (GFP/mCherry) by flow cytometry; type: cell-based; conditions: GFP/mCherry ratio by FACS
Description: HEK293T cells were transfected 24 hours before flow cytometery with the GFP-Fnip1 degron reporter+/−Fem1b.
FNIP1 variants were expressed in cells and tested for interaction with ^FLAGFEM1B by co-immunoprecipitation, and for degradation by measuring their abundance in the presence or absence of FEM1B. […] FEM1B variants were immunoprecipitated and bound FNIP1 and FLCN were detected by Western blotting. […] The FNIP1 degron was fused to GFP (GFP^degron) and expressed from the same plasmid as an IRES controlled mCherry. mCherry provides normalization for GFP fluorescence in each cell. […] Levels of GFP^degron and mCherry were determined by FACS, and their ratio is depicted for presence or absence of FEM1B variants. […] Cells were transfected with the GFP^degron/mCherry reporter, and analyzed for GFP and mCherry fluorescence by FACS. […] A TAMRA-labeled FNIP1 degron peptide was incubated with purified FEMIB or the control CRL1 adaptor FBXL17, and binding was measured by fluorescence polarization of the peptide. […] The TAMRA-labeled FNIP1 degron was incubated with recombinant CUL2^FEM1B (unmodified or NEDD8-modified), E1, ubiquitin, ATP and the E2 enzymes UBE2D3 and/or UBE2R1. Ubiquitylation was monitored by gel electrophoresis and fluorescence detection.

FEM1B = FEM1B (Homo sapiens, UniProt Q9UK73); assay: Fluorescence polarization binding of TAMRA-labeled FNIP1 degron peptide to recombinant FEM1B; conditions: degron peptide treated with agent
Chain of FEM1B (Q9UK73 whole entry): as above
Description: as §1, with “The FEM1B locus was deleted in 293T cells using CRISPR/Cas9.” left out, “FEM1B directly binds the FNIP1 degron in vitro.” left out, “The FNIP1 degron is sufficient to mediate CUL2^FEM1B-dependent ubiquitylation. The TAMRA-labeled FNIP1 degron was incubated with recombinant CUL2^FEM1B (unmodified or NEDD8-modified), E1, ubiquitin, ATP and the E2 enzymes UBE2D3 and/or UBE2R1.” left out, “detection. […]” for “detection.”

## Cc1cc(N(CCC#N)C(=O)CCl)ccc1Cl [EN-NJH-018]
FEM1B-FNIP1
  remaining activity at 5 µM: 16.4%
  activity at 50 µM: 12%

## CC(C)(C)OC(=O)N1CCOc2ccc(N(CCC#N)C(=O)CCl)cc21 [NJH-01-073]
FEM1B-FNIP1
  remaining activity at 5 µM: 32.8%
  activity at 50 µM: 9.87%

## O=C(CCl)Nc1cc2c(cc1Cl)OCCO2 [EN-NJH-014]
FEM1B-FNIP1
  remaining activity at 5 µM: 94.8%
  activity at 50 µM: 21.8%

## Cc1sc2c(c1C)C(c1ccc(Cl)cc1)=N[C@@H](CC(=O)NCCCCCNC(=O)CN1CCOc3cc(N(CCC#N)C(=O)CCl)ccc31)c1nnc(C)n1-2 [EN106 linked to BRD4 inhibitor JQ1, (S)-2-chloro-N-(4-(2-((5-(2-(4-(4-chlorophenyl)-2,3,9-trimethyl-6H-thieno[3,2-f][1,2,4]triazolo[4,3-a][1,4]diazepin-6-yl)acetamido)pentyl)amino)-2-oxoethyl)-3,4-dihydro-2H-benzo[b][1,4]oxazin-7-yl)-N-(2-cyanoethyl)acetamide]
BRD4
  degradation of BRD4: degradation of BRD4

## O=C(CCl)Nc1cc2c(cc1Br)OCCO2 [EN-NJH-007]
FEM1B-FNIP1
  remaining activity at 5 µM: 87.7%
  activity at 50 µM: 11.7%

## Cc1ncsc1-c1ccc(CNC(=O)[C@@H]2C[C@@H](O)CN2C(=O)[C@@H](NC(=O)COCCOCCOCCNC(=O)C[C@@H]2N=C(c3ccc(Cl)cc3)c3c(sc(C)c3C)-n3c(C)nnc32)C(C)(C)C)cc1 [MZ1, reference compound]
BRD4
  degradation of BRD4: degradation of BRD4

## CC(=O)N[C@@H](CS)C(=O)O [N-acetylcysteine]
[1]
  stability of GFP^degron reporter: does not affect the stability of the GFP^degron reporter

## CC(C)(C)OC(=O)CN1CCOc2cc(N(CCC#N)C(=O)CCl)ccc21 [NJH-01-093]
FEM1B-FNIP1
  remaining activity at 5 µM: 26.5%
  activity at 50 µM: 15.2%

## CCN(C(=O)CCl)c1ccc2c(c1)OCO2 [EN-NJH-004]
FEM1B-FNIP1
  remaining activity at 5 µM: 76.1%
  activity at 50 µM: 11.8%

## N#CCCN(C(=O)CCl)c1ccccc1F [EN-NJH-010]
FEM1B-FNIP1
  remaining activity at 5 µM: 46.8%
  activity at 50 µM: 14.6%

## CCN1C(=O)C=CC1=O [N-ethylmaleimide]
FEM1B
  recognition of FNIP1 degron by FEM1B after treatment of degron with Cys-modifying agent: strongly inhibited its recognition by FEM1B

## CC(Cl)C(=O)N(CCC#N)c1ccccc1 (stereo not drawn) [EN-NJH-008]
FEM1B-FNIP1
  remaining activity at 5 µM: 97.9%
  activity at 50 µM: 113%

## C=CCOc1ccccc1CN(C(=O)CCl)c1ccc2c(c1)OCCO2 [EN-NJH-001]
FEM1B-FNIP1
  remaining activity at 5 µM: 97.8%
  activity at 50 µM: 19.1%

## COc1cc2c(cc1OC)N(C(=O)CCl)CC2 [EN-NJH-020]
FEM1B-FNIP1
  remaining activity at 5 µM: 15.6%
  activity at 50 µM: 19.1%

## COc1cccc(CN(C(=O)CCl)c2ccc3c(c2)OCCO3)c1 [SB-02-092]
FEM1B-FNIP1
  remaining activity at 5 µM: 54.9%
  activity at 50 µM: 12.6%

## C=CCOc1ccccc1CN(C(=O)CCl)c1ccc2c(c1)OCO2 [EN-NJH-006]
FEM1B-FNIP1
  remaining activity at 5 µM: 89.7%
  activity at 50 µM: 21.5%

## O=C(CCl)N(Cc1cccs1)c1ccc2c(c1)OCCO2 [EN-NJH-009]
FEM1B-FNIP1
  remaining activity at 5 µM: 74.8%
  activity at 50 µM: 6%

## CCOc1ccc(N(CCC#N)C(=O)CCl)cc1 [EN-NJH-002]
FEM1B-FNIP1
  remaining activity at 5 µM: 40.1%
  activity at 50 µM: 8.82%

## C=CC(=O)N(CCC#N)c1ccc2c(c1)OCCO2 [NJH-01-098]
FEM1B-FNIP1
  remaining activity at 5 µM: 105%
  activity at 50 µM: 115%

## CC(=O)N1CCOc2ccc(N(CCC#N)C(=O)CCl)cc21 [NJH-01-085]
FEM1B-FNIP1
  remaining activity at 5 µM: 31.3%
  activity at 50 µM: 14.2%

## Cc1cc(C)cc(N(CCC#N)C(=O)CCl)c1 [EN-NJH-017]
FEM1B-FNIP1
  remaining activity at 5 µM: 63.7%
  activity at 50 µM: 17.4%

## C#CCCCCNC(=O)CI [IAyne]
[1]
  stability of GFP^degron reporter: stabilizes GFP^degron in cells

## CC(Cl)C(=O)Nc1ccc2c(c1)OCCO2 (stereo not drawn) [EN-NJH-005]
FEM1B-FNIP1
  remaining activity at 5 µM: 98.1%
  activity at 50 µM: 101%

## CC(C)C[C@H](NC(=O)[C@H](CCc1ccccc1)NC(=O)CN1CCOCC1)C(=O)N[C@@H](Cc1ccccc1)C(=O)N[C@@H](CC(C)C)C(=O)[C@@]1(C)CO1 [carfilzomib]
[1]
  stability of GFP^degron reporter: stabilizes the GFP^degron reporter

## N#CCCN(C(=O)CCl)c1ccccc1 [EN-NJH-019]
FEM1B-FNIP1
  remaining activity at 5 µM: 44.1%
  activity at 50 µM: 19.4%

## O=C(CCl)Nc1ccc2c(c1)OCCO2 [EN-NJH-013]
FEM1B-FNIP1
  remaining activity at 5 µM: 93.1%
  activity at 50 µM: 21.3%

## Cc1ccc(N(CCC#N)C(=O)CCl)cc1C [EN-NJH-016]
FEM1B-FNIP1
  remaining activity at 5 µM: 43.7%
  activity at 50 µM: 11.3%

## COc1ccccc1N(CCC#N)C(=O)CCl [EN-NJH-012]
FEM1B-FNIP1
  remaining activity at 5 µM: 90.4%
  activity at 50 µM: 24.8%

## Cc1ccc(N(CCC#N)C(=O)CCl)cc1 [EN-NJH-011]
FEM1B-FNIP1
  remaining activity at 5 µM: 45.8%
  activity at 50 µM: 4.29%

## O=C(CCl)N(CC=Cc1ccccc1)c1ccc2c(c1)OCCO2 [EN-NJH-021]
FEM1B-FNIP1
  remaining activity at 5 µM: 86.4%
  activity at 50 µM: 26.8%

## N#CCCN(C(=O)CCl)c1cccc(Cl)c1 [EN-NJH-003]
FEM1B-FNIP1
  remaining activity at 5 µM: 54.1%
  activity at 50 µM: 2.7%

## N#CCCN(C(=O)CCl)c1ccc(F)cc1 [EN-NJH-015]
FEM1B-FNIP1
  remaining activity at 5 µM: 36.3%
  activity at 50 µM: 16.3%

## NC(=O)CI [iodoacetamide]
FEM1B
  recognition of FNIP1 degron by FEM1B after treatment of degron with Cys-modifying agent: strongly inhibited its recognition by FEM1B

## antimycin A
[1]
  stability of GFP^degron reporter: stabilized GFP^degron
